According to patent US11306101B2 (Celgene Corporation, priority 2019, dated 2022):

Target: T1, CK1α (Homo sapiens, UniProt P48729+Q96SW2)
T1 construct: expressed in transfected cells
Assay: CK1α ePL degradation assay in MDS-L cells
Type: cell-based
Conditions: MDS-L cells expressing ePL-tagged CK1α; for DC50: concentration giving 50% CK1α degradation vs DMSO control; for Y: lowest measured CK1α level normalized to DMSO control
In short: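 Degradation efficiency is reported as Y value, the minimum CK1α level (percent of DMSO control) across doses. Readout used InCELL Hunter luminescent detection after MDS-L cell exposure at 37° C for stated times, doses 10 μM down to 0.0005 μM in 3-fold steps.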

T1 sequence (P48729 whole entry): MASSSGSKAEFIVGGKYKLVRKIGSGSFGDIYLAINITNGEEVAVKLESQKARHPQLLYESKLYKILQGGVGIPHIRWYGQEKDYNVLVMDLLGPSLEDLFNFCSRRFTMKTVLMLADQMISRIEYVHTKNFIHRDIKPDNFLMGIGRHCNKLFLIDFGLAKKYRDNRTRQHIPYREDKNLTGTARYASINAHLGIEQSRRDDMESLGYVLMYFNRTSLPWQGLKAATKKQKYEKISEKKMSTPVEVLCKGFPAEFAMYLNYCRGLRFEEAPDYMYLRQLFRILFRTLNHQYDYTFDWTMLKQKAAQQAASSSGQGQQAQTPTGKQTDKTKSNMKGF
T1 sequence (Q96SW2 whole entry): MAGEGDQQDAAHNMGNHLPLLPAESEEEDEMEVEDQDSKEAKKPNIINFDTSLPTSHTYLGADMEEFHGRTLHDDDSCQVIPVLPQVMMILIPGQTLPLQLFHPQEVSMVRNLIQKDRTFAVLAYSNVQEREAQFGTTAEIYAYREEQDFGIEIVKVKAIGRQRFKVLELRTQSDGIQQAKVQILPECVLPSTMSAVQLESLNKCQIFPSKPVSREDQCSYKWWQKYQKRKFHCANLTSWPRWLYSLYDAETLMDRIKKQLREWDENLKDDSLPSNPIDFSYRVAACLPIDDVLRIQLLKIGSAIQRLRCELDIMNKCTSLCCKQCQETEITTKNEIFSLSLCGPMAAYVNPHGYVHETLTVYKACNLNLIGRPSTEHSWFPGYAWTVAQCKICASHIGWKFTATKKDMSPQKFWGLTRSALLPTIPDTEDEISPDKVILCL
T1 sequence (Q16531 whole entry partner): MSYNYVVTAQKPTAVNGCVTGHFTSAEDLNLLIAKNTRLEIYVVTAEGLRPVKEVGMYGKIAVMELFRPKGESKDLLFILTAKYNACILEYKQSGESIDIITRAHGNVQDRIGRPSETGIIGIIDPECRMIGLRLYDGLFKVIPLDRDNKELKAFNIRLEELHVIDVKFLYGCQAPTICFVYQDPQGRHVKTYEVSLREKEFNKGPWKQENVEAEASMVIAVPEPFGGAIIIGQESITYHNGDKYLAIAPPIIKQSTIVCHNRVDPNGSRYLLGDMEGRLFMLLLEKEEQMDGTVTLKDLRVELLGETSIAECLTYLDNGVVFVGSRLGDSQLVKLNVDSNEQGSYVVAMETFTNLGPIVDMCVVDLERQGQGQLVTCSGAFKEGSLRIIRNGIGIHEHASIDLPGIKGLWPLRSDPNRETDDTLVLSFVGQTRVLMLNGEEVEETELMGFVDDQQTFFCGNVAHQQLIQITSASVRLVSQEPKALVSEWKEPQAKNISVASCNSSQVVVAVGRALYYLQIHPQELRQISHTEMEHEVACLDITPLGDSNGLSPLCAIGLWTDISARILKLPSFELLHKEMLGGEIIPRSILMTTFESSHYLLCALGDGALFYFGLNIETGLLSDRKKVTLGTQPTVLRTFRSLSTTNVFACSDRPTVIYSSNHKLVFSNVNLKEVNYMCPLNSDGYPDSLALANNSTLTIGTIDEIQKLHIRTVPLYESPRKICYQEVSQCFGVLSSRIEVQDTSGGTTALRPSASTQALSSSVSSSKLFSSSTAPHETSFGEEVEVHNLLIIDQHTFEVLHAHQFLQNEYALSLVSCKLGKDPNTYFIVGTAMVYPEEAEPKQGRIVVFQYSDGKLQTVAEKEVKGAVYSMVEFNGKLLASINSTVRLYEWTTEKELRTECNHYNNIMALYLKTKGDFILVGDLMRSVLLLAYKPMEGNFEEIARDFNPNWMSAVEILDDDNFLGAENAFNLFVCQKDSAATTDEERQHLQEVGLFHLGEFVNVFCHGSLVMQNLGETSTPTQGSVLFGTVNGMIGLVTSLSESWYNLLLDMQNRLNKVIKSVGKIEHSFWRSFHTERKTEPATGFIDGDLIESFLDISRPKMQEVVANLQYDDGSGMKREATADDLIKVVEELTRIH

O=C1CCC(N2Cc3cc(C(=O)N[C@H](c4cc(F)ccc4Cl)C(F)(F)F)ccc3C2=O)C(=O)N1 (stereo partly drawn) [Example 160, N-((R)-1-(2-chloro-5-fluorophenyl)-2,2,2-trifluoroethyl)-2-(2,6-dioxopiperidin-3-yl)-1-oxoisoindoline-5-carboxamide]
DC50: < 100 nM
Y: * (a Y value (shown as *) of 0<Y≤20%)

O=C1CCC(N2Cc3c(ccc(C(=O)N[C@H](c4ccc(Cl)cc4)C(F)(F)F)c3F)C2=O)C(=O)N1 (stereo partly drawn) [Example 93, N-((R)-1-(4-chlorophenyl)-2,2,2-trifluoroethyl)-2-(2,6-dioxopiperidin-3-yl)-4-fluoro-1-oxoisoindoline-5-carboxamide]
DC50: < 100 nM
Y: * (a Y value (shown as *) of 0<Y≤20%)

CC1([C@@H](NC(=O)c2ccc3c(c2)CN(C2CCC(=O)NC2=O)C3=O)C(F)(F)F)CCC1 (stereo partly drawn) [Example 74, 2-(2,6-dioxopiperidin-3-yl)-1-oxo-N-((R)-2,2,2-trifluoro-1-(1-methylcyclobutyl)ethyl)isoindoline-5-carboxamide]
DC50: < 100 nM
Y: * (a Y value (shown as *) of 0<Y≤20%)

O=C1CCC(N2Cc3cc(C(=O)N[C@H](c4ccc(F)cc4)C(F)F)ccc3C2=O)C(=O)N1 (stereo partly drawn) [Example 111, N-((R)-2,2-difluoro-1-(4-fluorophenyl)ethyl)-2-(2,6-dioxopiperidin-3-yl)-1-oxoisoindoline-5-carboxamide]
DC50: < 100 nM
Y: * (a Y value (shown as *) of 0<Y≤20%)

O=C1CCC(N2Cc3cc(C(=O)N[C@H](c4c(F)cccc4Cl)C(F)(F)F)ccc3C2=O)C(=O)N1 (stereo partly drawn) [Example 151, N-((R)-1-(2-chloro-6-fluorophenyl)-2,2,2-trifluoroethyl)-2-(2,6-dioxopiperidin-3-yl)-1-oxoisoindoline-5-carboxamide]
DC50: < 100 nM
Y: * (a Y value (shown as *) of 0<Y≤20%)

O=C1CCC(N2Cc3cc(C(=O)N[C@H](c4ccc(F)cc4OC(F)(F)F)C(F)(F)F)ccc3C2=O)C(=O)N1 (stereo partly drawn) [Example 86, 2-(2,6-dioxopiperidin-3-yl)-1-oxo-N-((R)-2,2,2-trifluoro-1-(4-fluoro-2-(trifluoromethoxy)phenyl)ethyl)isoindoline-5-carboxamide]
DC50: < 100 nM
Y: * (a Y value (shown as *) of 0<Y≤20%)

O=C1CCC(N2Cc3cc(C(=O)N[C@H](c4cccc(F)c4)C(F)(F)F)ccc3C2=O)C(=O)N1 (stereo partly drawn) [Example 37, 2-(2,6-dioxopiperidin-3-yl)-1-oxo-N-((R)-2,2,2-trifluoro-1-(3-fluorophenyl)ethyl)isoindoline-5-carboxamide]
DC50: < 100 nM
Y: ** (a Y value (shown as**) of 20%<Y≤35%)

O=C1CCC(N2Cc3c(ccc(C(=O)N[C@H](c4cccc(OC(F)(F)F)c4)C(F)(F)F)c3F)C2=O)C(=O)N1 (stereo partly drawn) [Example 120, 2-(2,6-dioxopiperidin-3-yl)-4-fluoro-1-oxo-N-((R)-2,2,2-trifluoro-1-(3-(trifluoromethoxy)phenyl)ethyl)isoindoline-5-carboxamide]
DC50: 100 to 500 nM
Y: ** (a Y value (shown as**) of 20%<Y≤35%)

O=C1CCC(N2Cc3cc(C(=O)N[C@H](c4ncccc4Cl)C(F)(F)F)ccc3C2=O)C(=O)N1 (stereo partly drawn) [Example 106, N-((R)-1-(3-chloropyridin-2-yl)-2,2,2-trifluoroethyl)-2-(2,6-dioxopiperidin-3-yl)-1-oxoisoindoline-5-carboxamide]
DC50: < 100 nM
Y: * (a Y value (shown as *) of 0<Y≤20%)

O=C1CCC(N2Cc3cc(C(=O)N[C@H](c4ccc(OC5CC5)cc4)C(F)(F)F)ccc3C2=O)C(=O)N1 (stereo partly drawn) [Example 148, N-((R)-1-(4-cyclopropoxyphenyl)-2,2,2-trifluoroethyl)-2-(2,6-dioxopiperidin-3-yl)-1-oxoisoindoline-5-carboxamide]
DC50: < 100 nM
Y: * (a Y value (shown as *) of 0<Y≤20%)

C[C@H](NC(=O)c1ccc2c(c1)CN(C1CCC(=O)NC1=O)C2=O)C1CCCC1 (stereo partly shown) [Example 3]
DC50: < 100 nM
Y: * (a Y value (shown as *) of 0<Y≤20%)
